In BindingDB's records for doi:10.7270/Q2QF8R8B (Pcmd, 2008):
pIC50: −log10 of the molar value.

Target: T1, Cathepsin G (Homo sapiens, UniProt P08311)
T1 sequence (P08311 whole entry): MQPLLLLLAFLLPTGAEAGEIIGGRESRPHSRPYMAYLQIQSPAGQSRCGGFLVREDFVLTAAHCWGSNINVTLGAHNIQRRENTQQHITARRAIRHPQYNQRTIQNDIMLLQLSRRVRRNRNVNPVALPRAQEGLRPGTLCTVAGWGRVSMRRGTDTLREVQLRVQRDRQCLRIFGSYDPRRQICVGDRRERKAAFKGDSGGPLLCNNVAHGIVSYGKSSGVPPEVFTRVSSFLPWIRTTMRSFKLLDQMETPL
Assay: IC50 of CTSG protease blockers – biochemical, confirmation, dose response (AID 832)

SMILES	pIC50
COc1ccc(C2C(C(=O)c3cccs3)C(=O)C(=O)N2c2nncs2)cc1 (stereo unspecified)	< 4.30
COc1ccc(C(=O)n2nc(-c3ccc(C)cc3)nc2N)cc1OC	< 4.30
O=C(CCSc1nccn1Cc1ccccc1)N1CCOCC1 [1-(4-morpholinyl)-3-[[1-(phenylmethyl)-2-imidazolyl]thio]-1-propanone]	< 4.30
CN1CC2(Cc3c1ccc1ccccc31)C(=O)OC(C)(C)OC2=O [2',2',4-trimethylspiro[1,3-dihydrobenzo[f]quinoline-2,5'-1,3-dioxane]-4',6'-dione]	4.63
COC(=O)c1sc(N2C(=O)C(=O)C(C(=O)c3ccc(C)o3)C2c2ccc(F)cc2)nc1C (stereo unspecified) [2-[2-(4-fluorophenyl)-4-hydroxy-3-[(5-methyl-2-furanyl)-oxomethyl]-5-oxo-2H-pyrrol-1-yl]-4-methyl-5-thiazolecarboxylic acid methyl ester]	< 4.30
COC(=O)c1ccccc1NC(=O)c1cc2sccc2n1C [2-[(4-Methyl-4H-thieno[3,2-b]pyrrole-5-carbonyl)-amino]-benzoic acid methyl ester]	4.52
CCN1C(=O)c2ccc(-c3nc4ccccc4c(=O)o3)cc2C1=O [2-ethyl-5-(4-keto-3,1-benzoxazin-2-yl)isoindoline-1,3-quinone]	< 4.30
Cc1nc2scc(-c3cccs3)c2c(=O)o1 [2-methyl-5-(2-thienyl)thieno[2,3-d][1,3]oxazin-4-one]	< 4.30
COc1ccc2c(c1)CCc1c(C(=O)N3CCc4ccccc4C3)noc1-2 [3,4-dihydro-1H-isoquinolin-2-yl-(7-methoxy-4,5-dihydrobenz[g]indoxazen-3-yl)methanone]	< 4.30
CC(C)C(CC(=O)N1CCCCC1)C1CCOC(C)(C)C1 (stereo unspecified) [3-(2,2-dimethyl-4-oxanyl)-4-methyl-1-(1-piperidinyl)-1-pentanone]	< 4.30
O=C(c1noc2c1CCc1ccccc1-2)N1CCCc2ccccc21 [3-(3,4-dihydroquinolin-1(2H)-ylcarbonyl)-4,5-dihydronaphtho[2,1-d]isoxazole]	4.32
O=C(c1noc2c1CCc1ccccc1-2)N1CCOCC1 [3-(morpholin-4-ylcarbonyl)-4,5-dihydronaphtho[2,1-d]isoxazole]	< 4.30

These reach a higher pIC50. Values come first.

pIC50	SMILES
4.71	O=C(c1noc2c1CCc1ccccc1-2)N1CCc2ccccc2C1 [3-(3,4-dihydroisoquinolin-2(1H)-ylcarbonyl)-4,5-dihydronaphtho[2,1-d]isoxazole]
4.92	CCOC(=O)c1c(C)n(C(=O)c2ccco2)c(=O)n1C(=O)c1ccco1
4.93	CSc1nc(-c2ccco2)nn1C(=O)c1ccco1 [2-furanyl-[3-(2-furanyl)-5-(methylthio)-1,2,4-triazol-1-yl]methanone]
5.01	CCSc1ccccc1C(=O)n1nnc2ccccc21
5.09	Cc1ccc(S(=O)(=O)n2nc(OC(=O)c3cccs3)cc2N)cc1
5.39	O=c1oc(-c2cccc(S(=O)(=O)N3CCOCC3)c2)nc2ccccc12 [2-(3-morpholin-4-ylsulfonylphenyl)-3,1-benzoxazin-4-one]
5.40	C#CCOC(=O)c1ccccc1C(=O)n1nnc2ccccc21
5.41	Cc1cc(C)cc(C(=O)n2cnnc2N)c1
5.44	O=C(c1csc2c1CCCC2)n1cccn1 [1-(4,5,6,7-tetrahydro-1-benzothien-3-ylcarbonyl)-1H-pyrazole]
5.56	O=c1oc(-c2cccnc2)nc2ccccc12 [2-(3-pyridinyl)-3,1-benzoxazin-4-one]
5.60	COc1ccc(S(=O)(=O)n2nc(OC(=O)c3cccs3)cc2N)cc1 [2-thiophenecarboxylic acid [5-amino-1-(4-methoxyphenyl)sulfonyl-3-pyrazolyl] ester]
5.80	Cc1ccc(C(=O)n2cnnc2N)cc1C [4-(3,4-dimethylbenzoyl)-4H-1,2,4-triazol-3-amine]
6.02	O=C(c1ccc2c(c1)OCO2)n1nnc2ccccc21
6.10	O=c1oc(-c2ccco2)nc2ccccc12 [2-Furan-2-yl-benzo[d][1,3]oxazin-4-one]
